Test results from ChEMBL document CHEMBL5465560, “Selectivity Literature for EUbOPEN Chemogenomic Library” (2024).

Tests used:
[1] = molecular target: Mitogen-activated protein kinase kinase kinase kinase 4 (Homo sapiens, UniProt O95819); experiment: Selectivity interaction (KinomeScan (DiscoverX)) EUB0000595a MAP4K4; conditions: at 10 µM
[2] = molecular target: T1, Mitogen-activated protein kinase 12 (Homo sapiens) (UniProt P53778); experiment: Selectivity interaction (KinomeScan (DiscoverX)) EUB0000655a MAPK12; conditions: at 10 µM
T1 sequence (whole entry): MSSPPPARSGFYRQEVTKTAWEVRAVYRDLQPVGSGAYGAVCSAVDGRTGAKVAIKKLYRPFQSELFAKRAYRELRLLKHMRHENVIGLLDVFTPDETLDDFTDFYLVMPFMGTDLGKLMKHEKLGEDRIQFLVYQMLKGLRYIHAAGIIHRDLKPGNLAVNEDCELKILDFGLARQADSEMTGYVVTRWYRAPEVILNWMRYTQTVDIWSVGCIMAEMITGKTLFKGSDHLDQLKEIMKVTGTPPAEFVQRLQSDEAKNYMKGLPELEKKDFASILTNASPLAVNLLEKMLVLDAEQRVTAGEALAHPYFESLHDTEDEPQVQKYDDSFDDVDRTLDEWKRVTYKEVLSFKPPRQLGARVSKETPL

[3] = molecular target: Phosphorylase b kinase gamma catalytic chain, skeletal muscle/heart isoform (Homo sapiens) (UniProt Q16816); experiment: Selectivity interaction (KinomeScan (DiscoverX)) EUB0001619a PHKG1; conditions: at 1 µM
Chain of Phosphorylase b kinase gamma catalytic chain, skeletal muscle/heart isoform (Homo sapiens) (Q16816 whole entry, looked up, canonical isoform): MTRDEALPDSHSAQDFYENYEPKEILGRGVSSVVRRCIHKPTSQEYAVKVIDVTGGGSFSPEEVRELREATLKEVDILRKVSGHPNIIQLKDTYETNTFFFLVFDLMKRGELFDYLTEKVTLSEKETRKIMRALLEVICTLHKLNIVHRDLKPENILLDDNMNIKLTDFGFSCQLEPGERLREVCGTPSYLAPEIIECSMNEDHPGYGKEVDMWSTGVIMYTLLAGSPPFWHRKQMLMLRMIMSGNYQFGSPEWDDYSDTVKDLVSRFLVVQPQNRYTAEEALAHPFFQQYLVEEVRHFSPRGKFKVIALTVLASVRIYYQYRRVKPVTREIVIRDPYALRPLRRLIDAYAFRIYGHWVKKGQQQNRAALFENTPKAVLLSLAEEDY

[4] = molecular target: T2, Ephrin type-B receptor 2 (Homo sapiens) (UniProt P29323); experiment: Selectivity interaction (SelectScreen profiling (Invitrogen)) EUB0000607a EPHB2; conditions: at 2 µM
T2 sequence (whole entry): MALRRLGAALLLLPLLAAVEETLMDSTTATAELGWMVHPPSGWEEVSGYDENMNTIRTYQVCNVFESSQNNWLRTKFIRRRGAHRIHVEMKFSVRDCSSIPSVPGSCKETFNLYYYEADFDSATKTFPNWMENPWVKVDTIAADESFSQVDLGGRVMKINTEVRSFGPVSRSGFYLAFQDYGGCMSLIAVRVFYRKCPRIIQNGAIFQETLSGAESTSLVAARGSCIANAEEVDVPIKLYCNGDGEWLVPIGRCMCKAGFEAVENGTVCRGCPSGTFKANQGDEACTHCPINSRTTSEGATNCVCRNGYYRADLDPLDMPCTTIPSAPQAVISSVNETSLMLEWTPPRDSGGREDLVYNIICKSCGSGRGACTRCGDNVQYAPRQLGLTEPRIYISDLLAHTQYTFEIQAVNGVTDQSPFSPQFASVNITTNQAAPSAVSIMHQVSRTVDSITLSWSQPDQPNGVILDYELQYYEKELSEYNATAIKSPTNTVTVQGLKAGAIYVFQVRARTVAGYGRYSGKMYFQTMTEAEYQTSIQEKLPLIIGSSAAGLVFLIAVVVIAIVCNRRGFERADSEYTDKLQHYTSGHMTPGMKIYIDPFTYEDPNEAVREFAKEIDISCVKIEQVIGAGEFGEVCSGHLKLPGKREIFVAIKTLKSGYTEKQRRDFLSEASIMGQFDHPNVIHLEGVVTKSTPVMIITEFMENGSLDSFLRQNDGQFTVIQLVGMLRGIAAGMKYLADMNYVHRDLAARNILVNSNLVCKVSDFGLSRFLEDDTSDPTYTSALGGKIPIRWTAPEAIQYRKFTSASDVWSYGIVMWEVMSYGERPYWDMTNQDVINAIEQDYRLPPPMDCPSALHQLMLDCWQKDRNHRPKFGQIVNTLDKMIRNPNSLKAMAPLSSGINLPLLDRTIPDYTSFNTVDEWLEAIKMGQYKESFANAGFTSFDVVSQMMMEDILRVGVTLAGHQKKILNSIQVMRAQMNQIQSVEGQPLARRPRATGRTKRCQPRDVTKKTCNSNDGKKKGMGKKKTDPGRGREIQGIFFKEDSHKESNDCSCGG

[5] = test system: Tyrosine-protein kinase JAK2 (Homo sapiens), O60674 [V617F]; experiment: (§1) Selectivity interaction (SelectScreen profiling (Invitrogen)) EUB0000607a JAK2; conditions: at 2 µM
Chain of Tyrosine-protein kinase JAK2 (Homo sapiens), O60674 [V617F] (O60674 whole entry V617F): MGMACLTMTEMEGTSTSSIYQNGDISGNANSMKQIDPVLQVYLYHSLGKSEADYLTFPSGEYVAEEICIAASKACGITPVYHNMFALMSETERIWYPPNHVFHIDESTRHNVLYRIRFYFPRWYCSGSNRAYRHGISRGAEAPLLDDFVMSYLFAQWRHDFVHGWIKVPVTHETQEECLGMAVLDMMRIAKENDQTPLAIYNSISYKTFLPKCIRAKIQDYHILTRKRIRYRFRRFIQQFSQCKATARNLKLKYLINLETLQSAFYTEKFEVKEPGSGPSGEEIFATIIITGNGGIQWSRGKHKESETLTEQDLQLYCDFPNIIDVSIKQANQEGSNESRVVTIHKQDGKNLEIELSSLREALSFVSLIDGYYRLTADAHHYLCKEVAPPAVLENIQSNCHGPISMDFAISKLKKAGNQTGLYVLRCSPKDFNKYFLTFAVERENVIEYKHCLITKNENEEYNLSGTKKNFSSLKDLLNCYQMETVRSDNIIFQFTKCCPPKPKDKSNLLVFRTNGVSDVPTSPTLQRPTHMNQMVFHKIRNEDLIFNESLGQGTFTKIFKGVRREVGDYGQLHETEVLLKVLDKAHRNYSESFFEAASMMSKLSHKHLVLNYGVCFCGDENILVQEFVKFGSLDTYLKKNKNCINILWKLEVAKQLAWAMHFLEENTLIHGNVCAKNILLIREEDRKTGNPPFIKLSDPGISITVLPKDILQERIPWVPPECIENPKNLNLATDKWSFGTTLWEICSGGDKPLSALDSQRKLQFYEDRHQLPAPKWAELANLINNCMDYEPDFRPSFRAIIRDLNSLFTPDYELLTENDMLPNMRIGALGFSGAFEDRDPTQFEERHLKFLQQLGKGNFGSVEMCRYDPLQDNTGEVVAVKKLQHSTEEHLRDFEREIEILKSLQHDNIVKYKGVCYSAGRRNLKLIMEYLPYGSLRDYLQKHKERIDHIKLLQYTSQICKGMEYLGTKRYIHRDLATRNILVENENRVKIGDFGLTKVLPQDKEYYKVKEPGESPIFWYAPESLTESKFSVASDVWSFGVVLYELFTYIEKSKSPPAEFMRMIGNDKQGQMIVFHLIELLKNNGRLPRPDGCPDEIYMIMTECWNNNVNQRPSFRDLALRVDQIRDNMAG

[6] = molecular target: Tyrosine-protein kinase JAK2 (Homo sapiens, UniProt O60674); experiment: as §1; conditions: at 2 µM
Chain of Tyrosine-protein kinase JAK2 (O60674 whole entry): as the sequence (O60674 whole entry V617F) above, with F617V counted along it

[7] = molecular target: Mitogen-activated protein kinase 8 (Homo sapiens, UniProt P45983); experiment: Selectivity interaction (Kinase panel (KiNativ target engagement assay in Jurkat cells)) EUB0001635a MAPK8; assay type: cell-based; conditions: at 1 µM
Chain of Mitogen-activated protein kinase 8 (P45983 whole entry): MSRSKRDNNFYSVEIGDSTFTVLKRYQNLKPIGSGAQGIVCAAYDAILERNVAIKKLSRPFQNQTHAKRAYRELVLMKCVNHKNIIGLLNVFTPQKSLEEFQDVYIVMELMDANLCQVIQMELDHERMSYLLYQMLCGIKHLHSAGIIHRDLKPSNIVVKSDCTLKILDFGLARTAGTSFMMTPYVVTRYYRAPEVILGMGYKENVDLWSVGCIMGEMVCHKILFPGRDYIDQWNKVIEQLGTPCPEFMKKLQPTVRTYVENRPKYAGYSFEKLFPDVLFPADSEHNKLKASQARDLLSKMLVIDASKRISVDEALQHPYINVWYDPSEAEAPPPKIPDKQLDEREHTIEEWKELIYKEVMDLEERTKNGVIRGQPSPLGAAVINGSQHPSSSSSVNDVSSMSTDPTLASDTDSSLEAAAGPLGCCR

[8] = molecular target: T3, Ephrin type-B receptor 4 (Homo sapiens) (UniProt P54760); experiment: Selectivity interaction (KinomeScan (DiscoverX)) EUB0000666a EPHB4; conditions: at 10 µM
T3 sequence (whole entry): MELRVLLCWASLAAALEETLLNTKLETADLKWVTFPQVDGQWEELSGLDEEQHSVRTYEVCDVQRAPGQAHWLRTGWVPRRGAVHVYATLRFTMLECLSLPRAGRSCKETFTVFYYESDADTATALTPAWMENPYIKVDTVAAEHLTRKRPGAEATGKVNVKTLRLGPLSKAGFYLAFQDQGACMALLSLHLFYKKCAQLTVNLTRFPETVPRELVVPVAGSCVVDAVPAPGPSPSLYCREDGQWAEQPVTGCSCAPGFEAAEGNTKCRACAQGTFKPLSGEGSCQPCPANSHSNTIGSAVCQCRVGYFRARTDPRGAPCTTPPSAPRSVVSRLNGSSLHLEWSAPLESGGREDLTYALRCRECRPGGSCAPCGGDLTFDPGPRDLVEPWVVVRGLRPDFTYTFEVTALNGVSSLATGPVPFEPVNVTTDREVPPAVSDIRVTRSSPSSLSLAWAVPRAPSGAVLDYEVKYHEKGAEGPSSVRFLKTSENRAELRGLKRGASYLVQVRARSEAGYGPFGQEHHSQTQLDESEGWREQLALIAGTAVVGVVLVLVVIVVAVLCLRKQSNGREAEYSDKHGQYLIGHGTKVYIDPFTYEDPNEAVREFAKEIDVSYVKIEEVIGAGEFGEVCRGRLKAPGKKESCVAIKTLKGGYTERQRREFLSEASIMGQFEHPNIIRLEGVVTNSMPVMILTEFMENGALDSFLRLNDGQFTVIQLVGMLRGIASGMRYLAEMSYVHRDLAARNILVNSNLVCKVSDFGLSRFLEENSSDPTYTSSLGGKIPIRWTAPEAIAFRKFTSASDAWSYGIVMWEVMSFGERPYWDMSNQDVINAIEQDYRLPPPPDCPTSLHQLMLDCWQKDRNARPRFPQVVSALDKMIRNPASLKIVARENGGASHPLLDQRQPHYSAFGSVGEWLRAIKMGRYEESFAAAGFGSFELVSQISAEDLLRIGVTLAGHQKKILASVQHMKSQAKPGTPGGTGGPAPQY

Chain of Mitogen-activated protein kinase kinase kinase kinase 4 (O95819 2-1239 limits assumed): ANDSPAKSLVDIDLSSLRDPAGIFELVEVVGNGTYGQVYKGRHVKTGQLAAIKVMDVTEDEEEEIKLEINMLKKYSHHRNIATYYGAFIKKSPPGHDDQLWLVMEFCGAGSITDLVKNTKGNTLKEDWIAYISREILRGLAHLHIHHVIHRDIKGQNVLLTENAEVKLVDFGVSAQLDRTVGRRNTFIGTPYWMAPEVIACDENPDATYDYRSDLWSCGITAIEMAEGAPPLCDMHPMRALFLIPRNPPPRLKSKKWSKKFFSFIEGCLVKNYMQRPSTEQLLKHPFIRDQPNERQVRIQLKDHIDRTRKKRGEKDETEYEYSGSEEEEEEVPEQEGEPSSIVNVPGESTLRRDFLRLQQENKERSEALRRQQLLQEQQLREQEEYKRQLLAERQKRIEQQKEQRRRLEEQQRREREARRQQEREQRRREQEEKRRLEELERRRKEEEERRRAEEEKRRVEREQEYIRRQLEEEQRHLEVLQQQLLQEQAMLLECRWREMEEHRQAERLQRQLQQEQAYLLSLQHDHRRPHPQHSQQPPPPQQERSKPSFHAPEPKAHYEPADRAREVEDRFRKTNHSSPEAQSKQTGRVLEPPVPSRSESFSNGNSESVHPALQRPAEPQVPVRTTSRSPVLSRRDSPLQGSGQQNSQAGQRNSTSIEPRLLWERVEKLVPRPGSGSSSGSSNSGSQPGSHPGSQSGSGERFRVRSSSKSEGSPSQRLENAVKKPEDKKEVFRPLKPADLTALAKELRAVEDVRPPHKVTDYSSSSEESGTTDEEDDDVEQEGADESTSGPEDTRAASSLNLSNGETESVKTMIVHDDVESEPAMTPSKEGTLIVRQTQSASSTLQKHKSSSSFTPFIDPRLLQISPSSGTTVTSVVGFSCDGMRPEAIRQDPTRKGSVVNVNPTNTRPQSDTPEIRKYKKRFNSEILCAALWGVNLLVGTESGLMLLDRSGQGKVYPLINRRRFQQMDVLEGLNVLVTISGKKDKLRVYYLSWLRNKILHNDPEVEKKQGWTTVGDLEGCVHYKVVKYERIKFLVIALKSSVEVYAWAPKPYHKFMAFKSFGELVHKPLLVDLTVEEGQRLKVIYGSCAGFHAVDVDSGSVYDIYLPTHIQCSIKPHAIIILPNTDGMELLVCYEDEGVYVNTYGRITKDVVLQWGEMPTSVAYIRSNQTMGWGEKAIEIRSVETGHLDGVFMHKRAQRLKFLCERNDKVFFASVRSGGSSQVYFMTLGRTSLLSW

`COCC(=O)NC/C=C/c1ccc2ncnc(Nc3ccc(Oc4ccc(C)nc4)c(C)c3)c2c1` [CP-724714] showed a % of control [1] of 97%.

With `CN(C)CCOc1ccc(-c2nc(-c3ccncc3)c(-c3ccc4c(c3)CC/C4=N\O)[nH]2)cc1` the % of control [2] was 77%.

`N#Cc1cccc(-c2c[nH]c3ncnc(N4CCOCC4)c23)c1` gave a % of control [3] of 81%.

For `CNC(=O)Nc1ccc(-c2nc(N3CC4CCC(C3)O4)c3cnn(C4CCC5(CC4)OCCO5)c3n2)cc1`, the % of inhibition [4] was 6%, the % of inhibition [5] was 4% and the % of inhibition [6] was -3%.

Work on `C=CC(=O)Nc1ccc(C(=O)Nc2[nH]nc3c2CN(C(=O)N[C@H](CN(C)C)c2ccccc2)C3(C)C)cc1` yielded a % of engagement [7] of -7.2%.

Compound `O=C(NOC[C@H](O)CO)c1ccc(F)c(F)c1Nc1ccc(I)cc1F` has a % of control [8] of 100%.
